Here are results for one substance from US7264314B2, “Adrenocorticotropic hormone analogs and related methods” (priority 2004, dated 2007).

No end group written: not given here.

The assay concerns serum corticosterone in dexamethasone-suppressed mice. The experiment in a line: in vivo Serum Corticosteroid Induction Assay. Set-up: species or system FVB/N mice. The conditions noted are these: compared to unmodified mACTH(1–24); 1 μg s.c.; blood one hour after administration. How it is done: An in vivo Serum Corticosteroid Induction Assay measures the level of corticosteroid or corticosterone in the blood stream of a subject. More specifically, the in vivo Serum Corticosteroid Induction Assay can include the following steps: first, an agent to suppress endogenous ACTH production was administered to a mouse subject, such as an intraperitoneal injection of dexamethasone; second, after waiting a suitable period of time for suppression of endogenous ACTH production (e.g., 1.5–2.0 hours), a test compound can be administered to the mouse by a suitable method, such as intraperitoneal or subcutaneous injection; and third, after waiting a suitable period of time (e.g., 1 hour) for action of the injected test compound, a blood sample can be taken from the subject and the level of serum corticosterone can be determined by a suitable method, such as a competitive radioimmunoassay using ^125I RIA kit (ICN, Costa Mesa, Calif.). Example 1 describes a murine in vivo Serum Corticosteroid Induction Assay in detail.
The corticosteroid or corticosterone secretion induced in vivo by an ACTH analog compound was compared to the level of corticosteroid secretion produced by an unmodified ACTH compound by measuring blood serum corticosteroid after administering either the ACTH or ACTH analog as test compounds. […] ACTH analog compositions with decreased function were identified by measuring corticosterone levels using standard radioimmunoassay (RIA) analysis on blood samples collected one hour after administering the mACTH(1–24) or ACTH analog compound to dexamethasone-suppressed mice. In FIG. 1, the potency of various ACTH analog peptides is expressed as per cent induction of corticosterone, with mouse ACTH being 100%. […] The percent of corticosterone induction 12 of ACTH analog Compounds in Samples 2–10 are shown as a percentage of the concentration of serum corticosterone 20 measured for unmodified mACTH(1–24) in the in vivo Serum Corticosteroid Adrenal Induction Assay. The structural modifications and measured percentage reduction in serum measured for Samples 2–10 in FIG. 1 are shown in Table 3 below.
The in vivo Serum Corticosteroid Induction Assay was performed according the following method. First, two to three month-old male FVB/N mice from our colony, five per group, were injected intraperitoneally with dexamethasone (0.4 mg/0.1 ml PBS per mouse; Sigma, St. Louis, Mo.) to suppress their endogenous ACTH production. See Hajos, G T et al., “Studies of the potency of polypeptides with ACTH action by a new method based on continuous measurement of plasma corticosterone,” Steroids Lipids Res 3:225–228 (1972), Costa, J L, et al., “Mutational analysis of evolutionarily conserved ACTH residues,” Gen Comp Endocrinol, 136:12–16 (2004), and Karpac, J, et al., “Development, Maintenance, and Function of the Adrenal Gland in Early Postnatal Pro-opiomelanocortin Null Mutant Mice,” Endocrinology (2005), published online ahead of print Feb. 24, 2005, all of which are incorporated herein by reference.
Second, ninety to one hundred twenty minutes later, the dexamethasone-suppressed mice were injected subcutaneously between the shoulder blades with either unmodified mACTH(1–24) or one of several ACTH analog peptide compounds (1 μg/0.1 mL PBS/0.5% BSA), or with vehicle alone (control) (0.1 mL PBS/0.5% BSA). The following ACTH analog peptide compounds were administered to separate mice: 1: murine ACTH1–24; 2: V26F,E30K; 3: P19W,K21E,Y23R; 4: E30K,P36R; 5: ALA19–24; 6: V26F,P36R; 7: P19W, K21E; 8: P19W,K21A,delY23; 9: P19W,K21A; 10: KRRP16-19RMW (AT814) (SEQ ID NO:20).
Third, one hour later, blood was collected within less than 1 minute from a small incision in the tail, and serum was flash-frozen and stored at −80° C. until assayed. Serum corticosterone was determined by competitive radioimmunoassay (^125I RIA kit; ICN, Costa Mesa, Calif.) according to the manufacturer's recommendations. One microliter of serum was used per assay sample. […]

Take “N-Ser^1-Tyr-Ser-Met-Glu^5-His-Phe-Arg-Trp-Gly^10-Lys-Pro-Val-Gly-Lys^15-Arg-Ala-Ala-Trp-Val^20-Lys-Val-Tyr-Pro-Ac (SYSMEHFRWGKPVGKRAAWVKVYP; not fully specified (C-terminus); printed as N-Ser1-Tyr-Ser-Met-Glu5-His-Phe-Arg-Trp-Gly10-Lys-Pro-Val-Gly-Lys15-Arg-Ala-Ala-Trp-Val20-Lys-Val-Tyr-Pro-Ac) [AT814]”: the “Percent reduction in serum corticosteroid” value is on record as 100%.
